# Active and inactive are the calls of the source.
# Key:
# [1] = target: Peroxisome proliferator-activated receptor gamma/Nuclear receptor coactivator 3 (Homo sapiens, UniProt P37231); assay type: functional;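 note: agonist potency for raising coactivator recruitment to the receptor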
# [2] = target: Peroxisome proliferator-activated receptor gamma/Nuclear receptor coactivator 2 (Homo sapiens, UniProt P37231); assay type: functional;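 note: agonist potency for raising coactivator recruitment to the receptor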
# [3] = target: Peroxisome proliferator-activated receptor gamma/Nuclear receptor coactivator 1 (Homo sapiens, UniProt P37231); assay type: functional;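 note: agonist potency as compounds enhance coactivator SRC-1 recruitment to PPARgamma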
# Chain of Peroxisome proliferator-activated receptor gamma/Nuclear receptor coactivator 1 (P37231 whole entry): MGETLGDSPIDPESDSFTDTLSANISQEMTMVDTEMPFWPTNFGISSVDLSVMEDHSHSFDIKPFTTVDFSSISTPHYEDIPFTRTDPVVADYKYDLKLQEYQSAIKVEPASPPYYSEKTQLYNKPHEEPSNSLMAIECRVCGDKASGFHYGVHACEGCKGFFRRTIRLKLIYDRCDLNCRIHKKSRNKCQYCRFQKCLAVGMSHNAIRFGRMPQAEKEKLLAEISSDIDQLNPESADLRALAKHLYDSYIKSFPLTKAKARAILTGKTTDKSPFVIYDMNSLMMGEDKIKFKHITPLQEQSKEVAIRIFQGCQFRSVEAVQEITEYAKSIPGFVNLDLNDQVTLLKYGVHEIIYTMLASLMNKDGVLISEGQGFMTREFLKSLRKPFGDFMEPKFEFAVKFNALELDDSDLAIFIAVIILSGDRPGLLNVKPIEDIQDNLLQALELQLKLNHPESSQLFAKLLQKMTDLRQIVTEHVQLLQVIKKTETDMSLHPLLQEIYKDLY
# Chain of Peroxisome proliferator-activated receptor gamma/Nuclear receptor coactivator 1 (Q15788 whole entry, further chain): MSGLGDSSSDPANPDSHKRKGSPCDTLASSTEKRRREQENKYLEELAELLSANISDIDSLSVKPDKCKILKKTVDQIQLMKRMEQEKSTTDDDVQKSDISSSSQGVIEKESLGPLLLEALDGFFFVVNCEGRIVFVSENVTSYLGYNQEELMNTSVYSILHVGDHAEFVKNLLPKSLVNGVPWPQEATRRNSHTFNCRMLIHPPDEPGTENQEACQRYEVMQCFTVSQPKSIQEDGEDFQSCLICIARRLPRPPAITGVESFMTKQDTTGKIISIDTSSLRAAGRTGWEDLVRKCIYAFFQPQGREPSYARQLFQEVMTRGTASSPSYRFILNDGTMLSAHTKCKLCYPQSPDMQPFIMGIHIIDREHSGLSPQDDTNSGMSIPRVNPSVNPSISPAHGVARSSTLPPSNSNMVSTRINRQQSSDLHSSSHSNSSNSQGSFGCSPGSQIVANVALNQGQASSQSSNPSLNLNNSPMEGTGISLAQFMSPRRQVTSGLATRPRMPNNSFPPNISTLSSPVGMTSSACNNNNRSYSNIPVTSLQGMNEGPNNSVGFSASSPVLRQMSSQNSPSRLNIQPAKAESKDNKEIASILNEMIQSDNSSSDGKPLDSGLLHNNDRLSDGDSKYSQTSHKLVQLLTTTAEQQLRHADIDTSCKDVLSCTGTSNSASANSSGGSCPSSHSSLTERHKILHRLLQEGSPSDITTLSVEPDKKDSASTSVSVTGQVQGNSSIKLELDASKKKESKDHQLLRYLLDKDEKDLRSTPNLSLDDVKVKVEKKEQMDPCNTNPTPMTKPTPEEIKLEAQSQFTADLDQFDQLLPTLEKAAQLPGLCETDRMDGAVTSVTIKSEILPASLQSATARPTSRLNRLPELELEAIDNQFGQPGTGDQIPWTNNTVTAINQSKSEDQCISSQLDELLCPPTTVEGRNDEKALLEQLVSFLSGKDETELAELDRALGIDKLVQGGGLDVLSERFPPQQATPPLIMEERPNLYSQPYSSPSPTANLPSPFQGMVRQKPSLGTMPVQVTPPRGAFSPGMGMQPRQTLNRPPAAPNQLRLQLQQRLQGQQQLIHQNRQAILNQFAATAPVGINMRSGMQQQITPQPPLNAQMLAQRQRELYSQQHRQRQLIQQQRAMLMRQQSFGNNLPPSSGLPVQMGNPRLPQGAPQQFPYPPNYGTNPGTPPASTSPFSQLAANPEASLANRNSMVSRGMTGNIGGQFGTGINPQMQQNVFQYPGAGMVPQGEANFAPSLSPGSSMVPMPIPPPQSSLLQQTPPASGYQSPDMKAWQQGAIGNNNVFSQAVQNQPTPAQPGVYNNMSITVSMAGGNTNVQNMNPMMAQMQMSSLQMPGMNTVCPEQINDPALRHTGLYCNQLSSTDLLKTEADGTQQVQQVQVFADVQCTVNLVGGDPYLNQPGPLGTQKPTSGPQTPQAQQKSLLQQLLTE
# [4] = target: T1, Polyadenylate-binding protein 1 (Homo sapiens, UniProt P11940); experiment: PABP1 MLLE–PAM2 binding inhibitor potency, dose response, biochemical, fluorescence polarization, FITC-PAM2 peptide (AID 602259); assay type: functional; conditions: read-out: IC50_Mean
# T1 sequence (P11940 whole entry): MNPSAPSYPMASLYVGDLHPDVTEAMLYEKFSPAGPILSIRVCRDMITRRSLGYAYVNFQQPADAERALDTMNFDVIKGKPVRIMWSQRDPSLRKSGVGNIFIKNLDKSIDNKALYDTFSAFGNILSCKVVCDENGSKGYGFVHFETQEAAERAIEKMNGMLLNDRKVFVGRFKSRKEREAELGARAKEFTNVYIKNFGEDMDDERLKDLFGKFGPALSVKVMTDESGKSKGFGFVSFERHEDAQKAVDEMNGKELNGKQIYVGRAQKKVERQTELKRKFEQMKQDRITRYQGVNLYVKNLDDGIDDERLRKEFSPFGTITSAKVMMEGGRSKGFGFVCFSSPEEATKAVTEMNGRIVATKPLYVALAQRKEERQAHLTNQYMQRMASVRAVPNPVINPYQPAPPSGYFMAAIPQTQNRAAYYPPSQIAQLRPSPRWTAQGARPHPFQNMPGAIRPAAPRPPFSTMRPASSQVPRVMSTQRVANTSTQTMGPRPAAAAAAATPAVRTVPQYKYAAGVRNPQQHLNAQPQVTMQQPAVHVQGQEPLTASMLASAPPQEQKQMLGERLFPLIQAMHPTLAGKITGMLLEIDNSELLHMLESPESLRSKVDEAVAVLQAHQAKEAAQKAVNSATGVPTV
# [5] = target: T1, Polyadenylate-binding protein 1; experiment: PABP1 MLLE–PAM2 interaction inhibitors, dose response, miRNA deadenylation inhibitor project, biochemical, fluorescence polarization, Cy5-PAM2 peptide, secondary (AID 602260); assay type: functional; conditions: read-out: IC50_Mean
# [6] = A cytotoxicity screen of small molecule inhibitors of the PhoP region in Salmonella typhi identified in the primary screen. [Related pubchem assays: 1850, 1864, 1985 ]; assay type: functional
# [7] = target: DNA dC->dU-editing enzyme APOBEC-3A (Homo sapiens, UniProt P31941); experiment: Dose Response confirmation of small molecule APOBEC3A DNA Deaminase Inhibitors via a fluorescence-based single-stranded DNA deaminase assay. [Related pubchem assays (depositor defined):AID493011, AID493024]; assay type: functional
# Chain of DNA dC->dU-editing enzyme APOBEC-3A (P31941 whole entry): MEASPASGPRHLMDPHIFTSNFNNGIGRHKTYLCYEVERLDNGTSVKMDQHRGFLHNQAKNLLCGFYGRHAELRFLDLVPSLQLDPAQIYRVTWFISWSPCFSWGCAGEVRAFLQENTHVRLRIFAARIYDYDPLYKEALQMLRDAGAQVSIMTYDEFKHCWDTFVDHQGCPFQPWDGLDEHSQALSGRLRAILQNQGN
# [8] = target: DNA dC->dU-editing enzyme APOBEC-3G (Homo sapiens, UniProt Q9HC16); assay type: functional;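 note: Dose-response counterscreen measuring inhibition of APOBEC3G DNA deaminase activity, run while confirming APOBEC3A inhibitors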
# Chain of DNA dC->dU-editing enzyme APOBEC-3G (Q9HC16 whole entry): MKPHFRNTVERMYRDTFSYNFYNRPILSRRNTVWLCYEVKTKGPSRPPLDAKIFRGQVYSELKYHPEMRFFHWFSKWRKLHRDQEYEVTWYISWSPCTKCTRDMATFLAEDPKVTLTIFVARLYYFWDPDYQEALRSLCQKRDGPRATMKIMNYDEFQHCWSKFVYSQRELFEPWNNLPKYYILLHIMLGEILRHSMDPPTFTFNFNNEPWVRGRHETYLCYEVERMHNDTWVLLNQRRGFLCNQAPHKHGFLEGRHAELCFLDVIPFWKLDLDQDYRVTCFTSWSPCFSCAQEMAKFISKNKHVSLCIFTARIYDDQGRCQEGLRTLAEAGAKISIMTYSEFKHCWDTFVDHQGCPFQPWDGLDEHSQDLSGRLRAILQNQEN
# Aminopeptidase N = target: T2, Aminopeptidase N (Plasmodium falciparum FcB1/Columbia, UniProt O96935); experiment: P. falciparum M1AAP inhibitors, biochemical, fluorogenic H-Leu-NHMec substrate, 1536-well (AID 1445); design: species or system Plasmodium falciparum 3D7, 3D7
# T2 sequence (O96935 whole entry): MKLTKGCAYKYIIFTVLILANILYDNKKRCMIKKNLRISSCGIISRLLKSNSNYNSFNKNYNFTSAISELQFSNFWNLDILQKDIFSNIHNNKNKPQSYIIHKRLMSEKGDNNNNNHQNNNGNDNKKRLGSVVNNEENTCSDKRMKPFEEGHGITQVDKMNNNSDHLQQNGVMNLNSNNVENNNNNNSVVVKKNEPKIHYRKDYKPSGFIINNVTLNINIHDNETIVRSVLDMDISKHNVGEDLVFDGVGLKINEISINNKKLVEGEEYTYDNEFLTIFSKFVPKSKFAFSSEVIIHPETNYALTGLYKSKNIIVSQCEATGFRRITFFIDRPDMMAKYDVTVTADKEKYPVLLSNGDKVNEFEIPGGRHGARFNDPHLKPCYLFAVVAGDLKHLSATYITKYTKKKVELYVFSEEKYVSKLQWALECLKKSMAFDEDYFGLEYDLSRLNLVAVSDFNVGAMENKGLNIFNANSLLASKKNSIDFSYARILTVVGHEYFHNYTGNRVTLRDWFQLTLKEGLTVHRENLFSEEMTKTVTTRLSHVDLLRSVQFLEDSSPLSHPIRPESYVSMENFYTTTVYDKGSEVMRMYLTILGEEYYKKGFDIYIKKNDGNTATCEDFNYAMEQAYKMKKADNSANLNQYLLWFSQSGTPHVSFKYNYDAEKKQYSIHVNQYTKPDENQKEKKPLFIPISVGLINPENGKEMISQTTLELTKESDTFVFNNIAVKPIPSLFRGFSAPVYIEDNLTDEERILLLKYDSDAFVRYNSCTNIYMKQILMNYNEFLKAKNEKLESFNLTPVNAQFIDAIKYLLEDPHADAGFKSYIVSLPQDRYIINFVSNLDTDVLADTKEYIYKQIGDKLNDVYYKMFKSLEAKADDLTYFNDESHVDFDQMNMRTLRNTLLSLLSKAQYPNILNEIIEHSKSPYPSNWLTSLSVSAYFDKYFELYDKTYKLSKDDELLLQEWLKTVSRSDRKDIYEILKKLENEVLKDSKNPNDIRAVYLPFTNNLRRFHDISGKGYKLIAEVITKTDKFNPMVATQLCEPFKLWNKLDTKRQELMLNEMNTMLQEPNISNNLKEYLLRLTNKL
# Beta-galactosidase [9] = target: T3, Beta-galactosidase (Escherichia coli, UniProt Q8VNN2); assay type: functional
# T3 sequence (Q8VNN2 whole entry): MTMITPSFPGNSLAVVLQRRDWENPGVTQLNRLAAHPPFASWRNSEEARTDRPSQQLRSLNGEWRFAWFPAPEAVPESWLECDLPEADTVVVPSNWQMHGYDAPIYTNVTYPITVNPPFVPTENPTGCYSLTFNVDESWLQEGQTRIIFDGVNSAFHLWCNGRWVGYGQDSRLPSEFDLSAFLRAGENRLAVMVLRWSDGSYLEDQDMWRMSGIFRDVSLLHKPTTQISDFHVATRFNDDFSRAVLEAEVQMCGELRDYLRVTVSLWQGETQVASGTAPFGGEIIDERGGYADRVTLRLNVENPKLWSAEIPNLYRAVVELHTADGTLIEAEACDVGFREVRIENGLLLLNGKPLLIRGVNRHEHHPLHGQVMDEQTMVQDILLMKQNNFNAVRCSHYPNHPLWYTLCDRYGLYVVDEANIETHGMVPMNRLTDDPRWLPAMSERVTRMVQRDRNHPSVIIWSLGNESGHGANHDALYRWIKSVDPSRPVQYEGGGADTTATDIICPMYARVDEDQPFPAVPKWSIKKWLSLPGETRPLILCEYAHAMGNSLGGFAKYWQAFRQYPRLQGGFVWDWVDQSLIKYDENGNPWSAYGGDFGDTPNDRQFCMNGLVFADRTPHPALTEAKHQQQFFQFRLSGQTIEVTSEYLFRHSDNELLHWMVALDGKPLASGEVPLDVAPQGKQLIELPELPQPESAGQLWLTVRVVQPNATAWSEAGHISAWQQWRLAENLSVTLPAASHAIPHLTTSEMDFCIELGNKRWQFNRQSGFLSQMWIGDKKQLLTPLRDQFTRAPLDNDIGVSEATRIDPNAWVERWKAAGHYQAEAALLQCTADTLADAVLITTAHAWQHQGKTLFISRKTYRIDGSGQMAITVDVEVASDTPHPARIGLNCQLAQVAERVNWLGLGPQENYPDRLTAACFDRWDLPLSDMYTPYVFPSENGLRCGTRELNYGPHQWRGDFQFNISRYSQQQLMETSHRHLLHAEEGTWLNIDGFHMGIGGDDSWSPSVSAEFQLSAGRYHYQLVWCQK
# [10] = target: T4, Kappa-type opioid receptor (Homo sapiens, UniProt P41145); assay type: functional
# T4 sequence (P41145 whole entry): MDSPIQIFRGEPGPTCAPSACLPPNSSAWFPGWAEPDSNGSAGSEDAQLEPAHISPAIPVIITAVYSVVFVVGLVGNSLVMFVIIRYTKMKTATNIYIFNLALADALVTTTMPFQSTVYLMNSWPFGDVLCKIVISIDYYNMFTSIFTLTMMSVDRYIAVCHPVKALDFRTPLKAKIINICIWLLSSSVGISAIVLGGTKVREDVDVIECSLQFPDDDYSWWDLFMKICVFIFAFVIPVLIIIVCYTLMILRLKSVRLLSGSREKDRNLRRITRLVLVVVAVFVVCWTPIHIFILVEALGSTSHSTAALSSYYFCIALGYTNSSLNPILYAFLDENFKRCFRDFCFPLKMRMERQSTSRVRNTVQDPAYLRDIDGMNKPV
# [11] = target: T4, Kappa-type opioid receptor; assay type: functional; remark: listed apart in the source
# [12] = target: Glyceraldehyde-3-phosphate dehydrogenase (Homo sapiens, UniProt P04406)
# Chain of Glyceraldehyde-3-phosphate dehydrogenase (P04406 whole entry): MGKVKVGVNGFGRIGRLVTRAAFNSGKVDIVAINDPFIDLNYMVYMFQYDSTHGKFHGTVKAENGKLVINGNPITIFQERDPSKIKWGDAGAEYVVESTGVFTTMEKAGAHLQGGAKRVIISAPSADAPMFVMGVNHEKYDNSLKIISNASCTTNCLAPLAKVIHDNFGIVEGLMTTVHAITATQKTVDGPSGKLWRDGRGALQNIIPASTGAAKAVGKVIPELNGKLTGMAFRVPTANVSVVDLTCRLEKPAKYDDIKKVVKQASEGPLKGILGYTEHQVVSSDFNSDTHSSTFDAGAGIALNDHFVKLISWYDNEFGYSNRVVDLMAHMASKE
# Beta-galactosidase [13] = target: T3, Beta-galactosidase; experiment: PubChem AID 485352; assay type: functional
# [14] = tested on: Streptococcus sp. 'group A'; experiment: growth inhibition of control SK(-) GAS strain, dose response, counter-screen for streptokinase expression inhibitor project, luminescence, kanamycin, BacTiterGlo, confirmation (AID 1900); assay type: functional, organism-based
# Streptococcus = experiment: Group A Streptococcus viability loss, dose response, counter-screen for streptokinase expression inhibitor project, luminescence, BacTiterGlo (AID 1915); assay type: functional, organism-based;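 note: potency for reduction of bacterial viability or growth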
# [15] = target: T5, Type-1 angiotensin II receptor (Homo sapiens, UniProt P30556); experiment: AT1 receptor antagonists, dose response, selectivity assay for APJ receptor antagonist project, cell-based, uHTS hits (AID 463214); assay type: functional;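 note: antagonist potency against angiotensin II stimulated AT1 response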
# T5 sequence (P30556 whole entry): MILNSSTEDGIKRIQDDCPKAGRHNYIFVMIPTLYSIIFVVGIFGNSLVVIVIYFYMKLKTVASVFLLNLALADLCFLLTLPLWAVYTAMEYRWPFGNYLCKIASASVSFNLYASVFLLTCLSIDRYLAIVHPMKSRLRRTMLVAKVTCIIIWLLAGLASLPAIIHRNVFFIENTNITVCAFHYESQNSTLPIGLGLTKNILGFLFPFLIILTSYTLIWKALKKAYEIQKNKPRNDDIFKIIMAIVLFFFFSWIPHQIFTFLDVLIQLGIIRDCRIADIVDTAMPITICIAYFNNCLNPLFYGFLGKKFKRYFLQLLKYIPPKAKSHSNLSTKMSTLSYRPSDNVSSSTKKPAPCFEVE
# Vero = Vero cell cytotoxicity, cytotoxicity control for flavivirus capping enzyme inhibitors (AID 588742); assay type: functional; conditions: Chlorocebus sabaeus
# [16] = target: T6, Apoptotic protease-activating factor 1 (Homo sapiens, UniProt O14727); assay type: functional
# T6 sequence (O14727 whole entry): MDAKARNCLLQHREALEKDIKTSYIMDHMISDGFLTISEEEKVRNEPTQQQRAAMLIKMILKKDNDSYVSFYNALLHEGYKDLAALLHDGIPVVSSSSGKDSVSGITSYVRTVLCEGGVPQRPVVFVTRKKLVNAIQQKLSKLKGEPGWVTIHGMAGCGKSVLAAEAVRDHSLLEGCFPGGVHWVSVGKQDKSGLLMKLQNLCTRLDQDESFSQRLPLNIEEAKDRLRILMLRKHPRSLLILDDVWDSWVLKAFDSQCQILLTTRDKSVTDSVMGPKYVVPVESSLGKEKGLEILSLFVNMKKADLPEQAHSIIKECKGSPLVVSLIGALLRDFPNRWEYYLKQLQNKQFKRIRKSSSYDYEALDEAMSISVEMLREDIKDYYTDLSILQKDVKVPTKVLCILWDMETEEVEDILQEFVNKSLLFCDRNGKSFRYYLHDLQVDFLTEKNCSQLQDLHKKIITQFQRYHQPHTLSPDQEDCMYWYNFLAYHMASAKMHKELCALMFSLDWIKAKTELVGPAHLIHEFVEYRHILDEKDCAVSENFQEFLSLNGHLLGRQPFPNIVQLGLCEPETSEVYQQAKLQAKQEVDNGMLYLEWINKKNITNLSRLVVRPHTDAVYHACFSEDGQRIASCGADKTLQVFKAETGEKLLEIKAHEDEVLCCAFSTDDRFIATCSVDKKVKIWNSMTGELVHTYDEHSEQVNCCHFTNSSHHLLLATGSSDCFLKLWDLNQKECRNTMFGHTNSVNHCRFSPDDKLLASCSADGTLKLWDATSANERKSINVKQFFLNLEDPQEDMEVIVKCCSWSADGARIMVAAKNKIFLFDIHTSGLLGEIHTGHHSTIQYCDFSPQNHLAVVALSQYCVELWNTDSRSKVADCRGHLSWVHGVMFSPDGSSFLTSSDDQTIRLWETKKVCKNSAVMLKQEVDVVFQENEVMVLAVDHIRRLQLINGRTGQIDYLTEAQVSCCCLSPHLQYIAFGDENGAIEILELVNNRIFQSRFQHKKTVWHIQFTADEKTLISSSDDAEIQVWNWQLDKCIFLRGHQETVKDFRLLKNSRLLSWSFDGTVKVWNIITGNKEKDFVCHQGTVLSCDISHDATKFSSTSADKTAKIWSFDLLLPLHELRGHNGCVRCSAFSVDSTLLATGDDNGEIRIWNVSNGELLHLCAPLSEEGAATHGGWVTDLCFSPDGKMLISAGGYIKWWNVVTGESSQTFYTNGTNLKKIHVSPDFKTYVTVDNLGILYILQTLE
# [17] = target: Induced myeloid leukemia cell differentiation protein Mcl-1 (Homo sapiens, UniProt Q07820); assay type: functional
# [18] = target: E3 ubiquitin-protein ligase Mdm2 (Homo sapiens, UniProt Q00987); experiment: enhancers of MDM2-luciferase reporter signal, concentration-effect titration, project on inhibitors of MDM2 ubiquitin ligase, cellular assay, luminescent readout, 384-well plate format (AID 1394); assay type: functional;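 note: MDM2 E3 inhibitors raise luminescence so EC50 is for signal enhancement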
# [19] = THP-1 cell cytotoxicity, dose response, cytotoxicity control for Vif-APOBEC3G degradation inhibitor project, THP-1 cells (AID 1117359); assay type: functional; conditions: Human immunodeficiency virus 1, THP-1
# cells = assay type: functional
# Estrogen receptor beta = Estrogen receptor beta (Homo sapiens, UniProt Q92731);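 note: recombinant ER-beta bound to coactivator SRC1 peptide in presence of estradiol agonist; inhibitors block coactivator peptide binding and lower the FRET signal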
compound,measurement,setting,value
CCOc1nc(-c2ccccc2)ccc1-c1noc(-c2cccs2)n1,EC50,[1],29.6 µM (not active)
same,EC50,[2],21.2 µM (not active)
same,EC50,[3],25.8 µM (not active)
CCOc1ccc(-c2csc(NNC3=NCCCCC3)n2)cc1,IC50,[4],> 66 µM (inactive)
same,EC50,[1],> 79.4 µM (not active)
same,EC50,[2],> 79.4 µM (not active)
same,EC50,[3],> 79.4 µM (not active)
same,IC50,[5],> 66 µM (inactive)
N=C(NOS(=O)(=O)c1ccc(Cl)cc1)c1cccnc1,EC50,[6],> 50 µM (active)
O=C(CSc1ncnc2nc[nH]c12)Nc1ccccc1C(F)(F)F,IC50,[7],50.8 µM (active)
same,IC50,[8],93.7 µM (active)
COc1ccc(CCNC(=O)CN(C2CCCCC2)S(C)(=O)=O)cc1OC,IC50,[7],4.1 µM (active)
same,IC50,[8],5.58 µM (active)
Cc1nnc(O)nc1N/N=C/c1cccs1,EC50,[1],> 79.4 µM (not active)
same,EC50,[2],> 79.4 µM (not active)
same,IC50,Aminopeptidase N,25.8 µM (active)
same,EC50,[3],> 79.4 µM (not active)
c1ccc(CSc2ccc(-c3cccs3)nn2)nc1,EC50,[6],> 50 µM (active)
CSC(=S)N/N=C(\C)c1ccccc1,EC50,Beta-galactosidase [9],> 31.5 µM (inactive)
same,IC50,[10],> 32 µM
same,IC50,[11],8.37 µM (active)
Cc1oc(C(=O)O)cc1COc1ccc2c(oc(=O)c3ccccc32)c1C,IC50,[12],> 100 µM (not active)
CCCOc1cccc(-c2cc(C(=O)N/N=C/c3ccccn3)c3ccccc3n2)c1,EC50,Beta-galactosidase [13],> 40 µM (inactive)
same,EC50,Beta-galactosidase [9],> 31.5 µM (inactive)
same,EC50,[14],1.95 µM (active)
same,IC50,[10],> 32 µM
same,EC50,Streptococcus,2.21 µM (active)
same,IC50,[11],8.44 µM (active)
same,IC50,[15],5.9 µM (active)
CS(=O)(=O)N(CCc1ccccc1)CC(=O)Nc1ccc2c(c1)OCO2,EC50,[6],> 50 µM (active)
COCCN(CC(=O)Nc1cccc(C)c1C)C(=O)CN1C(=O)NC2(CCCCC2)C1=O,IC50,[7],11.1 µM (active)
same,IC50,[8],12.2 µM (active)
O=C1NN(c2cccc(Cl)c2)C(=O)/C1=C\c1ccc(-c2cccc(C(=O)O)c2)o1,IC50,[12],> 100 µM (not active)
Cc1ccc2c(c1)c1ccc3c(c1n2C)C(=O)C=CC3=O,IC50,[4],> 66 µM (inactive)
same,CC50,Vero,27.3 µM (active)
same,IC50,[16],51.8 µM (active)
same,IC50,[17],1.51 µM (active)
same,EC50,[18],958 µM (active)
same,CC50,[19],12.5 µM (active)
same,IC50,[5],> 66 µM (inactive)
CCC(=O)Nc1cc(C(=O)O)ccc1S(=O)(=O)c1ccc(C)cc1,IC50,[7],16.4 µM (active)
same,IC50,[8],42.2 µM (active)
CCOC(=O)c1ccc(COC(=O)c2cc3ccccc3oc2=O)o1,IC50,cells,> 50 µM (active)
CCOC(=O)c1nn(-c2ccc(Cl)cc2)c2nc(-c3ccc(C)cc3)c(C#N)c(=O)n12,EC50,[1],> 79.4 µM (not active)
same,EC50,[2],> 79.4 µM (not active)
same,EC50,[3],> 79.4 µM (not active)
CSCCC(NC(=O)c1ccco1)C(=O)OCC(=O)Nc1sccc1C#N (stereo not drawn),IC50,Estrogen receptor beta,16.5 µM (active)
CC(C)=CCN1CCN(Cc2nc(-c3ccccc3)cs2)CC1CCO (stereo not drawn),EC50,[6],> 50 µM (active)
